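Briefly, cells in 96-well plates were exposed to five compound concentrations for 48 h, and endpoints were estimated by linear interpolation. At the GI50, growth is halved. Definition used: TGI = concentration required for complete inhibition of growth.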
Tests used:
Experiment in all cases: DTP human tumour cell line panel, 48 h
786-0 renal = tested on: 786-0 renal
A498 renal = tested on: A498 renal
A549 NSCLC = tested on: A549 NSCLC
ACHN renal = tested on: ACHN renal
BT-549 breast = tested on: BT-549 breast
CAKI-1 renal = tested on: CAKI-1 renal
CCRF-CEM leukemia = tested on: CCRF-CEM leukemia
COLO 205 colon = tested on: COLO 205 colon
DU-145 prostate = tested on: DU-145 prostate
EKVX NSCLC = tested on: EKVX NSCLC
HCC-2998 colon = tested on: HCC-2998 colon
HCT-116 colon = tested on: HCT-116 colon
HCT-15 colon = tested on: HCT-15 colon
HL-60(TB) leukemia = tested on: HL-60(TB) leukemia
HOP-62 NSCLC = tested on: HOP-62 NSCLC
HOP-92 NSCLC = tested on: HOP-92 NSCLC
HS 578T breast = tested on: HS 578T breast
HT29 colon = tested on: HT29 colon
IGROV1 ovarian = tested on: IGROV1 ovarian
K-562 leukemia = tested on: K-562 leukemia
KM12 colon = tested on: KM12 colon
LOX IMVI melanoma = tested on: LOX IMVI melanoma
M14 melanoma = tested on: M14 melanoma
MALME-3M melanoma = tested on: MALME-3M melanoma
MCF7 breast = tested on: MCF7 breast
MDA-MB-231 breast = tested on: MDA-MB-231 breast
MDA-MB-435 = tested on: MDA-MB-435
MOLT-4 leukemia = tested on: MOLT-4 leukemia
NCI-H226 lung = tested on: NCI-H226 lung
NCI-H23 lung = tested on: NCI-H23 lung
NCI-H460 lung = tested on: NCI-H460 lung
NCI/ADR-RES ovarian = tested on: NCI/ADR-RES ovarian
OVCAR-3 ovarian = tested on: OVCAR-3 ovarian
OVCAR-4 ovarian = tested on: OVCAR-4 ovarian
OVCAR-5 ovarian = tested on: OVCAR-5 ovarian
OVCAR-8 ovarian = tested on: OVCAR-8 ovarian
PC-3 prostate = tested on: PC-3 prostate
RPMI-8226 leukemia = tested on: RPMI-8226 leukemia
RXF 393 renal = tested on: RXF 393 renal
SF-268 CNS = tested on: SF-268 CNS
SF-295 CNS = tested on: SF-295 CNS
SF-539 CNS = tested on: SF-539 CNS
SK-MEL-2 melanoma = tested on: SK-MEL-2 melanoma
SK-MEL-28 melanoma = tested on: SK-MEL-28 melanoma
SK-MEL-5 melanoma = tested on: SK-MEL-5 melanoma
SK-OV-3 ovarian = tested on: SK-OV-3 ovarian
SN12C renal = tested on: SN12C renal
SNB-19 CNS = tested on: SNB-19 CNS
SNB-75 CNS = tested on: SNB-75 CNS
SR leukemia = tested on: SR leukemia
SW-620 colon = tested on: SW-620 colon
T-47D breast = tested on: T-47D breast
TK-10 renal = tested on: TK-10 renal
U251 CNS = tested on: U251 CNS
UACC-257 melanoma = tested on: UACC-257 melanoma
UACC-62 melanoma = tested on: UACC-62 melanoma
UO-31 renal = tested on: UO-31 renal

## CC(C)(C)c1ccc(C(=O)Nc2sc3c(c2C(N)=O)CCC(O)C3)cc1 (centres undefined)
786-0 renal
  GI50: 1.98 µM
  TGI: 6.35 µM
A498 renal
  GI50: 1.46 µM
  TGI: 4.79 µM
A549 NSCLC
  GI50: 2.23 µM
  TGI: 33 µM
ACHN renal
  GI50: 0.321 µM
  TGI: 13.2 µM
BT-549 breast
  GI50: 3.13 µM
  TGI: 14.2 µM
CAKI-1 renal
  GI50: 0.109 µM
  TGI: 3.61 µM
CCRF-CEM leukemia
  GI50: 2.01 µM
  TGI: 10.6 µM
COLO 205 colon
  GI50: 0.377 µM
  TGI: 1.72 µM
DU-145 prostate
  GI50: 2.7 µM
  TGI: 17.4 µM
EKVX NSCLC
  GI50: 3.52 µM
  TGI: 18.5 µM
HCC-2998 colon
  GI50: 1.05 µM
  TGI: 6.78 µM
HCT-116 colon
  GI50: 1.14 µM
  TGI: 11.5 µM
HCT-15 colon
  GI50: 0.729 µM
  TGI: 10.4 µM
HL-60(TB) leukemia
  GI50: 1.77 µM
  TGI: 15 µM
HOP-62 NSCLC
  GI50: 1.42 µM
  TGI: 8.65 µM
HOP-92 NSCLC
  GI50: 2.74 µM
  TGI: 16.5 µM
HS 578T breast
  GI50: 4.18 µM
  TGI: 35.1 µM
HT29 colon
  GI50: 0.569 µM
  TGI: 3.23 µM
IGROV1 ovarian
  GI50: 3.24 µM
  TGI: 18.5 µM
K-562 leukemia
  GI50: 0.0507 µM
  TGI: 1.22 µM
KM12 colon
  GI50: 0.365 µM
  TGI: 3.15 µM
LOX IMVI melanoma
  GI50: 0.228 µM
  TGI: 1.75 µM
M14 melanoma
  GI50: 0.995 µM
  TGI: 4.71 µM
MALME-3M melanoma
  GI50: 4.16 µM
  TGI: 17 µM
MCF7 breast
  GI50: 0.753 µM
  TGI: 10.5 µM
MDA-MB-231 breast
  GI50: 2.17 µM
  TGI: 5.32 µM
MDA-MB-435
  GI50: 0.422 µM
  TGI: 15.6 µM
MOLT-4 leukemia
  GI50: 1.65 µM
  TGI: 11.5 µM
NCI-H226 lung
  GI50: 2.96 µM
  TGI: 27 µM
NCI-H23 lung
  GI50: 4.16 µM
  TGI: 22.8 µM
NCI-H460 lung
  GI50: 0.493 µM
  TGI: 10.6 µM
NCI/ADR-RES ovarian
  GI50: 2.33 µM
  TGI: 31.7 µM
OVCAR-3 ovarian
  GI50: 3.11 µM
  TGI: 13.3 µM
OVCAR-4 ovarian
  GI50: 0.747 µM
  TGI: 17.1 µM
OVCAR-5 ovarian
  GI50: 3.14 µM
  TGI: 17.4 µM
OVCAR-8 ovarian
  GI50: 2.64 µM
  TGI: 87.4 µM
PC-3 prostate
  GI50: 2.77 µM
  TGI: 16.4 µM
RPMI-8226 leukemia
  GI50: 2 µM
  TGI: 5.42 µM
RXF 393 renal
  GI50: 1.77 µM
  TGI: 4.93 µM
SF-268 CNS
  GI50: 4.39 µM
  TGI: 17.9 µM
SF-295 CNS
  GI50: 0.582 µM
  TGI: 2.54 µM
SF-539 CNS
  GI50: 1.39 µM
  TGI: 7.19 µM
SK-MEL-2 melanoma
  GI50: 4.46 µM
  TGI: 19 µM
SK-MEL-28 melanoma
  GI50: 2.95 µM
  TGI: 15.1 µM
SK-MEL-5 melanoma
  GI50: 0.908 µM
  TGI: 3.7 µM
SK-OV-3 ovarian
  GI50: 3.44 µM
  TGI: 19.2 µM
SN12C renal
  GI50: 6.33 µM
  TGI: 22.2 µM
SNB-19 CNS
  GI50: 8.94 µM
  TGI: 21.2 µM
SNB-75 CNS
  GI50: 3.18 µM
  TGI: 15.1 µM
SR leukemia
  GI50: 0.312 µM
  TGI: 4.87 µM
SW-620 colon
  GI50: 0.597 µM
  TGI: 11 µM
T-47D breast
  GI50: 0.625 µM
  TGI: 14.8 µM
TK-10 renal
  GI50: 4.37 µM
  TGI: 18.4 µM
U251 CNS
  GI50: 3.95 µM
  TGI: 19.6 µM
UACC-257 melanoma
  GI50: 1.27 µM
  TGI: 10.1 µM
UACC-62 melanoma
  GI50: 0.333 µM
  TGI: 19.9 µM
UO-31 renal
  GI50: 2.03 µM
  TGI: 12.8 µM
